# Test: Dissolution in phosphate buffer when preparing the protein stabilization solution
# Type: physicochemical
# Settings: phosphate buffer (pH 7.4)
# Description: Two protein stabilizer solutions were prepared by dissolving the compound produced in Synthesis Example 1 in a phosphate buffer (pH 7.4) in such a manner that the final concentrations were controlled at 1.000% by mass (Example 1-1-1) and 0.100% by mass (Example 1-1-2) shown in Table 1 respectively.
# Preparation of a protein stabilization solution was tested in the same manner as Example 1-1 except for using the compound produced in Comparative Synthesis Example 1. However, the compound produced in Comparative Synthesis Example 1 was not dissolved in the phosphate buffer, so that the protein stabilization effect could not evaluated.
compound,measurement,value
"CCCCCCCCCCCCCCCCCCCCSCC(C)C(=O)OCCOP(=O)([O-])OCC[N+](C)(C)C (stereo not shown) [Comparative Synthesis Example 1, 2-[3-(eicosasulfanyl)-2-methylpropionyloxy]ethyl-2-(trimethylammonio)ethyl phosphate]",Dissolution in the phosphate buffer,not dissolved
